Tests used:
FGFR-2 = FGFR-2 (Homo sapiens, UniProt P21802); assay: Inhibition of FGFR-2; type: biochemical
FGFR-1 = FGFR-1 (Homo sapiens, UniProt P11362); assay: Inhibition of FGFR-1; type: biochemical
human GEO colon tumor = assay: Tumor growth in GEO colon cancer model (caliper measurement); type: in vivo, nude mice; conditions: compared to bevacizumab
Procedure: (§1) Tumors were propagated in nude mice as subcutaneous (sc) implants using human GEO colon tumor cell lines. Tumors were maintained in nude mice by serial passage. Treated animals were checked daily for treatment related toxicity/mortality. Each group of animals was weighed before the initiation of treatment (Wt1) and then again following the last treatment dose (Wt2). The difference in body weight (Wt2-Wt1) provided an overt measure of treatment-related toxicity. […] Tumor response was determined by measurement of tumors with a caliper twice a week, until the tumors reached a predetermined target size. Animals that were distributed to various treatment and control groups during the study were eventually sacrificed to obtain tumor and blood samples for genomic and protein analysis (Table 1).

mouse stromal tissues = assay: Transcriptional profiling of GEO xenograft tumors on mouse 430A arrays (genes in mouse stromal tissues); type: in vivo; conditions: for ESM1 level: after 2 hours treatment; for expression value of ESM1 in stromal tissue: treatment at 17 Days, in comparison with the control (FIG. 1)
Procedure: as §1
(§2) Mouse GEO xenograft tumors, treated and non-treated, were surgically removed at appropriate time points and split into two halves. One half of the tumor was mixed in a vial of 10% formalin to be used for IHC and the other half was mixed in 1.0 ml of RNAlater™ RNA Stabilization Reagent (Ambion, Inc., Austin, Tex.) held at room temperature for 30-minutes then stored at −80° C. Total RNA was extracted from the tumor samples using the RNeasy Kit™ (Qiagen, Valencia Calif.). A least 1 μg total RNA with a 260/280 ratio >1.8 by spectrophotometry (DU640 UV, Beckman Coulter, Fullerton, Calif.) was required for transcriptional profiling. Briefly, the tumor samples were homogenized in a lysis-binding solution supplied by Qiagen. An equal volume of ethanol was mixed into each sample, the mixture was passed through the filter cartridges provided, and the rest of the extraction protocol was followed (Ambion). RNA yield and quality were assessed on a standard 1% agarose gel. […] RNA samples were stored at −80° C.
(§3) Transcriptional profiling was performed on the RNA obtained from the GEO xenograft tumor samples. The Affymetrix GeneChip system (Affymetrix, Santa Clara, Calif.) was used for hybridization and scanning of the human U133A and mouse 430A arrays. Generation of cRNA followed a standard T7 amplification protocol. Total RNA was reverse-transcribed with SuperScript II™ (Gibco, Carlsbad, Calif.) in the presence of T7-(dT)24 primer to generate first strand cDNA. A second-strand cDNA synthesis was performed in the presence of DNA Polymerase I, DNA ligase, and RNase H (Gibco). The resulting double-stranded cDNA was blunt-ended using T4 DNA polymerase. This double-stranded cDNA was then transcribed into cRNA in the presence of biotin-ribonucleotides using the BioArray High Yield RNA transcript labeling kit (Enzo Life Sciences, Farmingdale, N.Y.). The amplified, biotin-labeled cRNA was purified using Qiagen RNeasy™ columns (Qiagen Sciences), quantified and fragmented at 94° C. for 35 minutes in the presence of fragmentation buffer (1×). Fragmented cRNA was hybridized to the Affymetrix U113A and 430A arrays overnight at 42° C. The arrays were then placed in the fluidics stations for staining and washing as recommended by Affymetrix protocols. The chips were scanned and raw intensity values were generated for each probe on the arrays.
(§4) 20 HG-U133A2 chips were normalized by the RMA (Robust Multi-array Analysis) method as described by R. A. Irizarry et al., Nucleic Acids Res., February 15; 31(4):e15 (2003). The same normalization was done for the 20 Mouse430A2 chips.
(§5) Differentially expressed genes were defined as: (i) FDR (false discovery rate) q value less than 0.05 when comparing specific compound treatment at single time point to the control (no treatment) at 0 time point and (ii) fold change bigger than 2 (log2Foldchange>1 or <−1) when compared specific treatment to control.

VEGFR-2 = VEGFR-2 (Homo sapiens, UniProt P35968); assay: Inhibition of VEGFR-2; type: biochemical
Chain of VEGFR-2 (P35968 20-1356, species assumed): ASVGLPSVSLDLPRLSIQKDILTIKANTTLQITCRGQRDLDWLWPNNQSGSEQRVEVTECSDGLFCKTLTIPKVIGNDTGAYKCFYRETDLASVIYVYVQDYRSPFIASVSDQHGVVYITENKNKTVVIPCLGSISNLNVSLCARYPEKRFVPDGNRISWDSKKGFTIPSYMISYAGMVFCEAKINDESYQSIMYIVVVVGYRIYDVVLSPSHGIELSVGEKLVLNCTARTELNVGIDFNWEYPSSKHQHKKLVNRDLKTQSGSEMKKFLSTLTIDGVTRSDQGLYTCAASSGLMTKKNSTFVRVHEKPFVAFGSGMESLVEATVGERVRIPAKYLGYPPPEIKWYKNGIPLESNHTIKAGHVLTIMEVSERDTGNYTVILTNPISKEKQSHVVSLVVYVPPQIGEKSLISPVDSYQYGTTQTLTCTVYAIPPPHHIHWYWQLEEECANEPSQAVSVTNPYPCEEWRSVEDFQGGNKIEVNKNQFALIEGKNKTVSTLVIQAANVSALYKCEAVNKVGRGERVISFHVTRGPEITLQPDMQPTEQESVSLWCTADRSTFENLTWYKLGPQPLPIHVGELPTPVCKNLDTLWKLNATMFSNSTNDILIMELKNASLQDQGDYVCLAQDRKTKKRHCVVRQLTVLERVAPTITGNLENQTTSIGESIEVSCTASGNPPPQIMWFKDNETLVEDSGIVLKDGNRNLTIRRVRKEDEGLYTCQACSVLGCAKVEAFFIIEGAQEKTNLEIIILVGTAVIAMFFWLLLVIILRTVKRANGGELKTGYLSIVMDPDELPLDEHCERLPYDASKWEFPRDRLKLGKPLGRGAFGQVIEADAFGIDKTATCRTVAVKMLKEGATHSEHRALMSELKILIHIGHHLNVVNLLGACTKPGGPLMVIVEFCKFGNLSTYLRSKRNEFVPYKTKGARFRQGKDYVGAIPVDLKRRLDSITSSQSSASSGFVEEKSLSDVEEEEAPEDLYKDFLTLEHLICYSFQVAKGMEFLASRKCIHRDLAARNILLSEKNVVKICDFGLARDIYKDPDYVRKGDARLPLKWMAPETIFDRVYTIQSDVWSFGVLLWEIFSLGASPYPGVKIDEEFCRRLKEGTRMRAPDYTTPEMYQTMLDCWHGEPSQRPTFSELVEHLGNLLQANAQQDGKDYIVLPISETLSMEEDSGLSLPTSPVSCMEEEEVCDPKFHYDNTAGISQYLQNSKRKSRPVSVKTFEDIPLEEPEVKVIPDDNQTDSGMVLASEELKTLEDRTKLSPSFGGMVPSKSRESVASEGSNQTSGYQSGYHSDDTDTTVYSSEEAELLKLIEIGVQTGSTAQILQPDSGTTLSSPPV

[1] = tested on: human GEO colon tumor xenograft tumor tissues; assay: Transcriptional profiling of GEO xenograft tumors on human U133A arrays (genes in tumor tissues); type: in vivo
Procedure: as §1, §2, §3, §4, §5

[2] = mouse stroma tissue, 17 days time point
[3] = tumor xenografts, after 17 days
[4] = xenograft tumor tissues, 17 days (FIG. 4)

Chain of FGFR-1 (P11362 22-822, species assumed): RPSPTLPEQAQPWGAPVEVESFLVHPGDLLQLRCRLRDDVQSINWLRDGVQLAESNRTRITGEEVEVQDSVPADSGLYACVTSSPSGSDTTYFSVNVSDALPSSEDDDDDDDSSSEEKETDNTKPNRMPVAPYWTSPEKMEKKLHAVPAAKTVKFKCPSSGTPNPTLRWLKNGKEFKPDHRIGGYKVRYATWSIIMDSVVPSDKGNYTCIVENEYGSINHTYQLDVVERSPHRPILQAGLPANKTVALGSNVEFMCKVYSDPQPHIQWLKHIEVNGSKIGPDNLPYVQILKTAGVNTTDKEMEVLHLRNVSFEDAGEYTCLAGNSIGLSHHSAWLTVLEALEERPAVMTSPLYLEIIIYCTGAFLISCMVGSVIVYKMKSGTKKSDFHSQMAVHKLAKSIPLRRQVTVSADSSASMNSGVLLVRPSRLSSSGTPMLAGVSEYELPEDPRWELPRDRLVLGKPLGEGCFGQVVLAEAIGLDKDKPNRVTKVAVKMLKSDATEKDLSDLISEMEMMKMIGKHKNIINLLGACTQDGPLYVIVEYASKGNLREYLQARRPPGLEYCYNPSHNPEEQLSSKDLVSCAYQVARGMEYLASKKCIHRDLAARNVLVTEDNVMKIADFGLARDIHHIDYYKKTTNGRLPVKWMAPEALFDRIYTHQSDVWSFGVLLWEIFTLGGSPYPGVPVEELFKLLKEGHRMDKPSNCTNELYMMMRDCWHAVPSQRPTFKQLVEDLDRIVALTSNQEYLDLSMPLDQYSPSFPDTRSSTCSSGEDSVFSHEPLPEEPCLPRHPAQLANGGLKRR
Chain of FGFR-2 (P21802 22-821, species assumed): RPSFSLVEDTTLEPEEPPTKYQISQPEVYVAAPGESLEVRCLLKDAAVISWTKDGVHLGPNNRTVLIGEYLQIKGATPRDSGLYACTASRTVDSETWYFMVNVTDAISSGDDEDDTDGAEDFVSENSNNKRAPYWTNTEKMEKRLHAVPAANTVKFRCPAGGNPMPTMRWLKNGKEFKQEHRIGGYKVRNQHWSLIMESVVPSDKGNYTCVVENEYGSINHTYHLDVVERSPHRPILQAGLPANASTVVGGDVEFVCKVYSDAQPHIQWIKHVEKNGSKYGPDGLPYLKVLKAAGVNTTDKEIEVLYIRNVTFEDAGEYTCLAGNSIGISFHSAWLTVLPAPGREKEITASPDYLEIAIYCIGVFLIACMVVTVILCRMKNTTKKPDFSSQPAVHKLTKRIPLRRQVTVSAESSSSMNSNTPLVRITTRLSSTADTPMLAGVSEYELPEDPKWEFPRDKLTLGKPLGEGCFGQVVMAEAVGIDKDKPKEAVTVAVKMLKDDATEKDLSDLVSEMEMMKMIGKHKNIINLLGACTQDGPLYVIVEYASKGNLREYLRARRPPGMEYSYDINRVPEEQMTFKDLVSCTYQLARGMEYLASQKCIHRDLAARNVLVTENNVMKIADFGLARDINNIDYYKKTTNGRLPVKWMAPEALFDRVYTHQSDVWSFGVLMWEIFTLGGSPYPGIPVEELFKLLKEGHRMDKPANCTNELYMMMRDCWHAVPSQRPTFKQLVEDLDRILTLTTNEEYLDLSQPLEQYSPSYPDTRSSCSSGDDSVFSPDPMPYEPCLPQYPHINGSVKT

Q: Which “inhibition of FGFR-2” value (FGFR-2) does the source give for Cc1cc2c(F)c(Oc3ncnn4cc(OC[C@@H](C)OC(=O)[C@H](C)N)c(C)c34)ccc2[nH]1 [compound 1, [(1R), 2S]-2-Aminopropionic acid 2-[4-(4-fluoro-2-methyl-1H-indol-5-yloxy)-5-methylpyrrolo[2,1-f][1,2,4]triazin-6-yloxy]-1-methylethyl ester] here?
A: Its value is “inhibition”.

Q: And the “inhibition of FGFR-1” value (FGFR-1)?
A: Its value is “inhibition”.

Q: And the “ability to inhibit tumor growth” value (human GEO colon tumor)?
A: Its value is “increase affect on the ability to inhibit tumor growth when compared to bevacizumab”.

Q: What about the ESM1 level (mouse stromal tissues) of the same molecule?
A: Its ESM1 level is “decreasing trend”.

Q: What about the “expression level of S100A8” value (mouse stromal tissues; [2]) of the same molecule?
A: The value was “up-regulated”.

Q: What about the “expression level of S100A9” value (mouse stromal tissues; [2]) of the same molecule?
A: Its value is “up-regulated”.

Q: And the “expression value of ESM1 in stromal tissue” value (mouse stromal tissues)?
A: Its value is “significantly decreases”.

Q: What about the CD14 expression (mouse stromal tissues; upon treatment, 17 days) of the same molecule?
A: Its CD14 expression is “elevated”.

Q: What about the “inhibition of VEGFR-2” value (VEGFR-2) of the same molecule?
A: Its value is “potent inhibition”.

Q: And the CEACAM1 expression ([1]; 3 probe sets (206576_s_at, 211889_x_at, 209498_at), treatment at 17 days)?
A: The CEACAM1 expression was “significant increase”.

Q: What about the “expression level of RAGE, up-regulated” value ([1]; human xenograft tissue, 17 days, FDR q=0.002) of the same molecule?
A: The value was 1.9 fold.

Q: And the AKAP7 inhibited ([1]; treatment at 17 days, FDR q<0.008 (FIG. 4))?
A: Its AKAP7 inhibited is 3.5 fold.

Q: And the EMP1 up-regulated ([1]; tumor tissue, 17 Days, significant FDR q values (FIG. 3))?
A: Its EMP1 up-regulated is 3.9 fold.

Q: And the FGF-8 levels [1, 3]?
A: Its FGF-8 levels is “elevated”.

Q: And the FGF-18 levels [1, 3]?
A: The FGF-18 levels was “elevated”.

Q: And the FGF-22 levels [1, 3]?
A: The FGF-22 levels was “elevated”.

Q: And the FGFR-2 levels [1, 3]?
A: Its FGFR-2 levels is “elevated”.

Q: What about the FGF-2 levels ([1]; tumor xenografts, after 17 days, low expression) of the same molecule?
A: Its FGF-2 levels is “didn't change much”.

Q: What about the “Expression of Collagen 18” value [1, 4] of the same molecule?
A: The value was “up-regulated”.

Q: And the VEGF expression [1, 4]?
A: Its VEGF expression is “up-regulated”.

Q: What about the VEGFB expression [1, 4] of the same molecule?
A: Its VEGFB expression is “up-regulated”.

Q: “bevacizumab: AVASTIN (bevacizumab), indirectly inhibits the VEGFR-2 signaling pathway by preventing VEGF ligand binding [reference compound]” was tested. Which ESM1 level (mouse stromal tissues) did it give?
A: The ESM1 level was “decreasing trend”.

Q: And the “expression value of ESM1 in stromal tissue” value (mouse stromal tissues)?
A: The value was “significantly decreases”.
